“Also recorded” adds a separate entry of the source.
How the values were obtained:
[1] = tested on: KM12L4a human colon tumors; experiment: Antibody immunohistochemistry staining of KM12L4a human colon tumors (Ki67, PARP, caspase-3, CD31); format: in vivo, mouse; conditions: 100 mg/kg for 7 days
soluble ICAM = experiment: Soluble ICAM ELISA in serum of 4T1 tumor bearing mice; conditions: 4T1 breast tumors
MMP-9 = experiment: Zymography for MMP-9 activity in KM12L4a human colon xenografts; format: in vivo, mouse; conditions: 100 mg/kg for 7 days; KM12L4a tumors in Nu/nu mice; listed as 4-amino-5-fluoro-3-[6-(4-methylpiperazin-1-yl)-1H-benzimidazol-2-yl]quinolin-2(1)
Description: Female Nu/nu mice (6-8 weeks old, 18-22 grams) were obtained from Charles River Laboratories (Wilmington, Mass.). Tumor cells (2×10^6 KM12L4a) were implanted subcutaneous into the flank of mice and allowed to grow to the desired size before treatment was initiated. […] The tumors were resected and flash frozen in liquid nitrogen.
After electrophoresis, gels were washed twice for 15 minutes in 2.5% Triton X-100, incubated overnight at 37° C. in 50 mM Tris-HCl and 10 mM CaCl2, pH 7.6, and stained with 0.5% Comassie Blue and destained with 50% methanol.

ICAM = experiment: Western blot analysis of HUVECs, ICAM; conditions: 100 nM, lysates at 0, 16 and 24 hours
α5 integrin = experiment: Western blot analysis of HUVECs, α5 integrin; conditions: 100 nM, lysates at 0, 16 and 24 hours
αv integrin = experiment: Western blot analysis of HUVECs, αv integrin; conditions: 100 nM; lysates at 0, 16 and 24 hours
4T1 breast tumor cells = experiment: 4T1 spontaneously metastatic mouse breast tumor model: subcutaneous tumor growth, liver and lung metastases; format: in vivo
VEGF-A = VEGF-A ELISA in KM12L4a tumor lysates; format: in vivo, mouse; conditions: 100 mg/kg for 7 days; KM12L4a tumors in Nu/nu mice; listed as 4-amino-5-fluoro-3-[6-(4-methylpiperazin-1-yl)-1H-benzimidazol-2-yl]quinolin-2(1)
Excerpt: […]. Tumor cells (2×10^6 KM12L4a) were implanted subcutaneous into the flank of mice and allowed to grow to the desired size before treatment was initiated. […] The tumors were resected and flash frozen in liquid nitrogen.
VEGF-A protein levels in KM12L4a tumor lysates were quantified using a commercially available ELISA kit (R and D Systems, Minneapolis, Minn.) according to the manufacturer's procedures.

VCAM = experiment: Western blot analysis of HUVECs, VCAM; conditions: 100 nM, lysates at 0, 16 and 24 hours
soluble VCAM = experiment: Soluble VCAM ELISA in serum of 4T1 tumor bearing mice; conditions: 4T1 breast tumors
[2] = 100 or 150 mg/kg orally, daily for 18 days
[3] = varying amounts (10-150 mg/kg), 18 days
[4] = listed as 4-amino-5-fluoro-3-[6-(4-methylpiperazin-1-yl)-1H-benzimidazol-2-yl]quinolin-2(1)
[5] = 10 mpk orally, daily for 18 days
[6] = 30 mpk orally, daily for 18 days
[7] = 60 mpk orally, daily for 18 days
[8] = 100 mpk orally, daily for 18 days
[9] = 150 mpk orally, daily for 18 days
[10] = orally, daily, after 18 days of dosing, BALB/C mice

CN1CCN(c2ccc3nc(-c4c(N)c5c(F)cccc5[nH]c4=O)[nH]c3c2)CC1 [Compound 1]
apoptosis (PARP cleavage and caspase-3) [1]: induced apoptosis
tumor cell proliferation (Ki67) [1]: decreased tumor cell proliferation
vascular density (CD31) [1]: reduced vascular density
inhibition of soluble ICAM in serum (soluble ICAM; [2]): greater than 70%
soluble ICAM in serum, effect in words (soluble ICAM; [3]): dose-dependent reduction
MMP-9 activity in tumors (zymography) (MMP-9): decreased MMP-9 activity; also recorded: decrease
expression of ICAM in HUVECs (ICAM): decreased
expression of ICAM in HUVECs (ICAM; [4]): decrease
expression of α5 integrin in HUVECs (α5 integrin): decreased
expression of α5 integrin in HUVECs (α5 integrin; [4]): decrease
expression of αv integrin in HUVECs (αv integrin): not αν integrin
growth of the subcutaneous tumor inhibited compared to control (4T1 breast tumor cells; 10-150 mg/kg orally, daily for 18 days, BALB/C mice): 40-80%
# of Liver Metastases Mean +/− SD (4T1 breast tumor cells; [5]): 22.0 +/− 32.3
Liver Metastases: Incidence of Metastases (4T1 breast tumor cells; [5]): 7/8
# of Liver Metastases Mean +/− SD (4T1 breast tumor cells; [6]): 3.1 +/− 3.5
Liver Metastases: Incidence of Metastases (4T1 breast tumor cells; [6]): 6/10
# of Liver Metastases Mean +/− SD (4T1 breast tumor cells; [7]): 0.7 +/− 0.9
Liver Metastases: Incidence of Metastases (4T1 breast tumor cells; [7]): 5/10
# of Liver Metastases Mean +/− SD (4T1 breast tumor cells; [8]): 4.1 +/− 13.0
Liver Metastases: Incidence of Metastases (4T1 breast tumor cells; [8]): 1/10
# of Liver Metastases Mean +/− SD (4T1 breast tumor cells; [9]): 0.0 +/− 0.0
Liver Metastases: Incidence of Metastases (4T1 breast tumor cells; [9]): 0/9
liver metastases inhibition (4T1 breast tumor cells; [10]): completely inhibited
lung metastases inhibited (4T1 breast tumor cells; [10]): 60-97%
VEGF production in tumors (ELISA) (VEGF-A): reduced VEGF production; also recorded: decrease
expression of VCAM in HUVECs (VCAM): decreased
expression of VCAM in HUVECs (VCAM; [4]): decrease
inhibition of soluble VCAM in serum (soluble VCAM; [2]): 44-47%
soluble VCAM in serum, effect in words (soluble VCAM; [3]): dose-dependent reduction

From patent publication US7875624B2, “Modulating and measuring cellular adhesion” (Novartis Vaccines and Diagnostics, Inc., priority 2004, dated 2011)
